Legend:
[1] = Thermodynamic stability of the solid state forms; assay type: physicochemical; details: at least in the relevant temperature range below 600 / below 60° C.
[2] = test system: DU-145 Human Prostate Carcinoma; test: DU-145 human prostate carcinoma model in nude mice; assay type: in vivo; details: orally 10, 20 or 30 mg/kg in 30% HPβCD, tumor growth determined 27 to 56 days after tumor transplantation, versus vehicle control
Description: The active compound was applied in 30% HPβCD. As control, a vehicle of DMSO/ethanol 1.1 in 0.085% Myrj/NaCl/30% HPβCD was used. The tumor growth was determined after 27 to 56 days after tumor transplantation.

SMILES | thermodynamic stability of the polymorph [1] | tumor growth [2]
Nc1ccccc1NC(=O)c1ccc(CNC(=O)OCc2cccnc2)cc1 [polymorph A, N-(2-aminophenyl)-4-[N-(pyridine-3-yl)methoxycarbonylamino-methyl]benzamide, reference compound] | not the thermodynamically stable polymorph | 
Nc1ccccc1NC(=O)c1ccc(CNC(=O)OCc2cccnc2)cc1 [polymorph B, N-(2-aminophenyl)-4-[N-(pyridine-3-yl)methoxy-carbonylamino-methyl]benzamide] | thermodynamically stable polymorph | clear inhibition

Reference: patent US7973166B2, “N-(2-aminophenyl)-4-[N-(pyridine-3-yl)-methoxycarbonyl-aminomethyl]-benzamide (MS-275) polymorph B” (Bayer Schering Pharma AG, priority 2008, dated 2011)
